Laboratory results taken from patent US4939159A, “Azaindole derivatives useful as cholesterol biosynthesis inhibitors” (Sandoz Pharm. Corp., priority 1989, dated 1990).

System: 3β-hydroxysterol synthesis
Assay: Test B. In Vivo Cholesterol Biosynthesis Inhibition Test
Settings: Rattus norvegicus, po; rats, orally administered; read-out: ED50 (dose producing 50% inhibition of 3β-hydroxysterol synthesis)
Protocol: Test B. In Yivo Cholesterol Biosynthesis Inhibition Test:
In this test the rats are orally administered the test substance (compound of Formula I) at a dose of 0.025-200 mg/kg body weight. The obtained ED50 the dose of the test substance observed or calculated to produce a 50% inhibition of 3β -hydroxysterol synthesis.

Question: For CC[C@H](C)C(=O)O[C@H]1C[C@@H](C)C=C2C=C[C@H](C)[C@H](CC[C@@H]3C[C@@H](O)CC(=O)O3)[C@H]21 [Mevinolin], which ED50 is on record?
Answer: 0.38 mg/kg
